7 compounds from patent publication US8299073B2, “P38 MAP kinase inhibitors” (Respivert Ltd., priority 2008, dated 2012) can be followed below.

Data set [1] concerns the target T1, p38 MAPK alpha (MAPK14: Invitrogen) (Homo sapiens, UniProt Q16539).
T1 construct: purchased Invitrogen
Nature of the data set: Enzyme inhibition assay (FRET, Z-LYTE), p38 MAPK alpha, via activation of MAPKAP-K2. Format: biochemical. The settings on record: read-out: IC50 values p38α enzyme.

Data set [2] deals with T2, recombinant, phosphorylated p38 MAPK gamma (MAPK12:Millipore) (Homo sapiens, UniProt P53778).
T2 construct: purchased Millipore
T2 sequence (P53778 1-367): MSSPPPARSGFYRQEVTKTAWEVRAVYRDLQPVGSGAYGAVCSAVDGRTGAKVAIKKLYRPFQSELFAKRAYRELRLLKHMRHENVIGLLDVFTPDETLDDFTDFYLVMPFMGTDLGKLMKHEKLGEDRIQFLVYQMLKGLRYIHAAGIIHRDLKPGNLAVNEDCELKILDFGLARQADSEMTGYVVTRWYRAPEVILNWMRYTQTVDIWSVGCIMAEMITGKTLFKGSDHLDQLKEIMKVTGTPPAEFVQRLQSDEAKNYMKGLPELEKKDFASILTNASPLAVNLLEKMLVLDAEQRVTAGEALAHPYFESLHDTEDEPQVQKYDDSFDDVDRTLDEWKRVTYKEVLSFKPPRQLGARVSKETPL
Nature of the data set: Enzyme inhibition assay (FRET, Z-LYTE), p38 MAPK gamma. It counts as biochemical. The settings on record: read-out: IC50 values P38γ enzyme.
Procedure: The enzyme inhibitory activity of compound was determined by fluorescence resonance energy transfer (FRET) using synthetic peptides labelled with both donor and acceptor fluorophores (Z-LYTE, Invitrogen). Briefly, recombinant, phosphorylated p38 MAPK gamma (MAPK12:Millipore) was diluted in HEPES buffer, mixed with compound at desired final concentrations and incubated for two hours at room temperature. The FRET peptide (2 μM) and ATP (100 uM) were next added to the enzyme/compound mixture and incubated for one hour. Development reagent (protease) was added for one hour prior to detection in a fluorescence microplate reader. The site-specific protease only cleaves non-phosphorylated peptide and eliminates the FRET signal. Phosphorylation levels of each reaction were calculated using the ratio of coumarin emission (donor) over fluorescein emission (acceptor) with high ratios indicating high phosphorylation and low ratios, low phosphorylation levels.

Data set [3] relates to LPS-induced TNFα release in differentiated U937 cells. In words: LPS-induced TNF alpha release in differentiated U937 cells. Format: cell-based.
Procedure: U937 cells, human monocytic cell line, were differentiated to macrophage-type cells by incubation with phorbol myristate acetate (PMA; 100 ng/ml) for 48 to 72 hours. Where appropriate, cells were pre-incubated with final concentrations of compound for 2 hrs. Cells were then stimulated with 0.1 μg/mL of LPS (from E. coli: O111:B4, Sigma) for 4 hrs, and the supernatant collected for determination of TNFα concentration by sandwich ELISA (Duo-set, R&D systems).
For data set [4], the system named is LPS-induced TNFα release in THP-1 cells. Nature of the data set: LPS-induced TNF alpha release in THP-1 cells. Format: cell-based. The settings on record: Homo sapiens.
Procedure: THP-1, human monocytic cell line, was also used for this assay. THP-1 cells were stimulated with 1 μg/ml of LPS (from E. coli: O111:B4, Sigma) for 4 hrs, and the supernatant collected for determination of TNFα concentration.
THP-1 cells, a human monocytic cell line, were stimulated with 1 μg/ml of LPS (from E. coli; O111:B4, Sigma) for 4 hr and the supernatant collected for determination of TNFα concentration by sandwich ELISA (Duo-set, R&D systems). The inhibition of TNFα production was calculated at each concentration by comparison with vehicle control.
Data set [5] has as its system Differentiated U937 cells. In words: MTT assay (loss of cell viability). It counts as cell-based, human. Particulars: loss of cell viability, 10 ug/ml.
Procedure: Differentiated U937 cells were pre-incubated with compound for 4 hrs in 5% FCS or 10% FCS for 24 hrs and 72 hr. The supernatant was replaced with 200 ul of new media and 10 μL of MTT stock solution (5 mg/mL) added to each well. After 1 hr incubation, the media were removed, 200 μL of DMSO added to each well and the plates were shaken lightly for 1 hr prior to reading the absorbance at 550 nm.
The percentage loss of cell viability was calculated for each well relative to vehicle (0.5% DMSO)-treatment. Consequently an apparent increase in cell viability for drug treatment relative to vehicle is tabulated as a negative percentage.
The mark [6] stands for this setting: Homo sapiens; read-out: R-EC50 values d-U937 cells.
Setting [7] is: THP-1, LPS-induced TNFα release, read-out: IC50 values THP-1 cells.

pEC50, pIC50: −log10 of the molar value. Read-outs that look alike come from different tables or passages of the source.

T1 sequence (Q16539 whole entry): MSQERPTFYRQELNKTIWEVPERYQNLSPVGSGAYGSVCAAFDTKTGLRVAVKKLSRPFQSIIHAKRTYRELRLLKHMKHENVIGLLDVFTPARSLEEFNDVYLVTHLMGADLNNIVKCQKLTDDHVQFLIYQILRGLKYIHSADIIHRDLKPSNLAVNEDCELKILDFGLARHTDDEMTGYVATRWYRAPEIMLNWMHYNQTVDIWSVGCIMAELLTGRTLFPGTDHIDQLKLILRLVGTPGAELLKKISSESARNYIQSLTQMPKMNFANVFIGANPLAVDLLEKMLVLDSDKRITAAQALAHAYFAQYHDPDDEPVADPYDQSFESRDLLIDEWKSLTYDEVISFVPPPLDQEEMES

As to `Cc1ccc(-n2nc(C(C)(C)C)cc2NC(=O)Nc2ccc(OCc3ccnc(NC(=O)N4CCN(C)CC4)c3)c3ccccc23)cc1` [Example 12, N-(4-((4-(3-(3-tert-Butyl-1-p-tolyl-1H-pyrazol-5-yl)ureido)naphthalen-1-yloxy)methyl)pyridin-2-yl)-4-methylpiperazine-1-carboxamide], the pIC50 in data set [1] was over 8.00; in data set [2] it was over 6.30; in data set [4] (THP-1, read-out: IC50 values THP-1 cells) it was over 8.00. For the same compound, the pEC50 in data set [3] (Homo sapiens, read-out: R-EC50 values d-U937 cells) was over 8.00. The “MTT 4 hr” value in data set [5] was “− (− <30%)”. The “MTT 24 hr” value in data set [5] is listed as “− (− <30%)”.
For the compound `Cc1ccc(-n2nc(C(C)(C)C)cc2NC(=O)Nc2ccc(OCc3ccnc(NC(=O)N4CCOCC4)c3)c3ccccc23)cc1` [Example 13, N-(4-((4-(3-(3-tert-Butyl-1-p-tolyl-1H-pyrazol-5-yl)ureido)naphthalen-1-yloxy)methyl)pyridin-2-yl)morpholine-4-carboxamide], the values for the pIC50 in data set [1], in data set [2] and in data set [4] (setting [7]) were over 8.00, over 6.30 and over 6.30, respectively. Also, in data set [3] (setting [6]), the pEC50 is over 8.00. Besides, the “MTT 4 hr” value in data set [5] is listed as “− (− <30%)”. In addition, the “MTT 24 hr” value in data set [5] is “− (− <30%)”.
For `COCCC(=O)Nc1cc(COc2ccc(NC(=O)Nc3cc(C(C)(C)C)nn3-c3ccc(C)cc3)c3ccccc23)ccn1` [Example 14, N-(4-((4-(3-(3-tert-Butyl-1-p-tolyl-1H-pyrazol-5-yl)ureido)naphthalen-1-yloxy)methyl)pyridin-2-yl)-3-methoxypropanamide], the pIC50 in data set [1] is over 8.00; in data set [2] it was over 6.30; in data set [4] (setting [7]) it was over 8.00. Moreover, the pEC50 in data set [3] (setting [6]) is over 8.00. Further, in data set [5], the “MTT 4 hr” value was “− (− <30%)”. The “MTT 24 hr” value in data set [5] is given as “− (− <30%)”.
For `Cc1ccc(-n2nc(C(C)(C)C)cc2NC(=O)Nc2ccc(OCc3ccnc(NC(=O)CCCN(C)C)c3)c3ccccc23)cc1` [Example 16, N-(4-((4-(3-(3-tert-Butyl-1-p-tolyl-1H-pyrazol-5-yl)ureido)naphthalen-1-yloxy)methyl)pyridin-2-yl)-4-(dimethylamino)butanamide], the pIC50 is over 6.30 in data set [1], over 6.30 in data set [2] and over 8.00 in data set [4] (setting [7]). In addition, in data set [3] (setting [6]), the pEC50 was over 8.00. Moreover, the “MTT 4 hr” value in data set [5] is “+ (+ >30% at 10 ug/ml)”. Moreover, the “MTT 24 hr” value in data set [5] is “+ (+ >30% at 10 ug/ml)”.
Take `Cc1ccc(-n2nc(C(C)(C)C)cc2NC(=O)Nc2ccc(OCc3ccnc(NC(=O)CCS(C)(=O)=O)c3)c3ccccc23)cc1` [Example 17, N-(4-((4-(3-(3-tert-Butyl-1-p-tolyl-1H-pyrazol-5-yl)ureido)naphthalen-1-yloxy)methyl)pyridin-2-yl)-3-(methylsulfonyl)propanamide]: the pIC50 in data set [1] is over 8.00; in data set [2], over 6.30; in data set [4] (setting [7]), over 8.00. The pEC50 in data set [3] (setting [6]) is over 8.00. Also, in data set [5], the “MTT 4 hr” value was “− (− <30%)”. Moreover, the “MTT 24 hr” value in data set [5] is given as “− (− <30%)”.
Take `Cc1ccc(-n2nc(C(C)(C)C)cc2NC(=O)Nc2ccc(OCc3ccnc(NC(=O)N4CCN(S(C)(=O)=O)C4=O)c3)c3ccccc23)cc1` [Example 18, N-(4-((4-(3-(3-tert-Butyl-1-p-tolyl-1H-pyrazol-5-yl)ureido)naphthalen-1-yloxy)methyl)pyridin-2-yl)-3-(methylsulfonyl)-2-oxoimidazolidine-1-carboxamide]: the values for the pIC50 in data set [1], in data set [2] and in data set [4] (setting [7]) were over 6.30, under 5.30 and over 8.00, respectively. Further, the negative logarithm of the EC50 (pEC50) in data set [3] (setting [6]) is over 6.30. Moreover, in data set [5], the “MTT 4 hr” value is “− (− <30%)”. Also, the “MTT 24 hr” value in data set [5] is on record as “− (− <30%)”.
On to `Cc1ccc(-n2nc(C(C)(C)C)cc2NC(=O)Nc2ccc(OCc3ccnc(NC(=O)CN4CCCC4)c3)c3ccccc23)cc1` [Example 22, N-(4-((4-(3-(3-tert-Butyl-1-p-tolyl-1H-pyrazol-5-yl)ureido)naphthalen-1-yloxy)methyl)pyridin-2-yl)-2-(pyrrolidin-1-yl)acetamide], for which the pIC50 was over 8.00 in data set [1], over 6.30 in data set [2] and over 8.00 in data set [4] (setting [7]). In addition, in data set [3] (setting [6]), the pEC50 is over 8.00. The “MTT 4 hr” value in data set [5] is recorded as “− (− <30%)”. Further, the “MTT 24 hr” value in data set [5] was “− (− <30%)”.

By pIC50 is commonly meant the IC50 on a negative log10 scale, so that one unit is a factor of ten. By pEC50 is commonly meant the EC50 on a negative log10 scale, so that one unit is a factor of ten.
